# Results taken from US5962533A, “Hydroxy polyamines” (priority 1996, dated 1999).
# “And” between values parts separate entries of the source, which are not always exact repeats. Equal values may be shown once. Read-outs that look alike come from different tables or passages of the source.
# Key:
# [1] = system: NMDA receptor; test: NMDA assay: specific [3H]MK-801 binding to washed rat cerebral cortical membranes; conditions: 100 μm L-glutamate, 100 μm glycine, 2 nm [3H]MK-801
# Text: FIG. 4 depicts the effects of (HO)2 DEHSPM and DEHSPM on the NMDA receptor (MK-801 binding). Each data point represents the mean ±s.d. of three experiments. Each experiment was, in turn, performed in triplicate. "100% activity" is defined as the amount of specific MK-801 binding to washed rat cerebral cortical membranes in the presence of saturating concentrations of coagonists (100 μm L-glutamate, 100 μm glycine) and 2 nm [^3 H]MK-801.
# NMDA Assay. The procedure for measuring specific binding of [^3 H]MK-801 to the N-methyl-D-aspartate receptor complex was a modification of the method of Ransom and Stec [J. Neurochem., Vol. 51, pages 830-836 (1988)]. Cerebral cortices from young male Sprague-Dawley rats (200-300 g) were homogenized with 10 volumes ice-cold 0.32M sucrose using a motor-driven glass/Teflon homogenizer. The homogenate was centrifuged at 1,000 g for 10 minutes and the pellet was discarded. The supernatant was then centrifuged at 18,000 g for 20 minutes. The 18,000 g pellet was then resuspended in 10 volumes buffer A (5 mm Tris-HCl, pH 7.7) at 4° C., homogenized using high-intensity ultrasound and centrifuged at 8,000 for 20 minutes. The supernatant and upper buffy coat of the pellet were combined and centrifuged at 50,000 g for 20 minutes. The pellet was then resuspended in 10 volumes buffer A and homogenized using high-intensity ultrasound. These resuspended membranes were then centrifuged at 50,000 g, discarding the supernatant. The membranes were washed in this manner an additional three times and stored as a frozen suspension at -80° C. for at least 18 hours, but no longer than 2 weeks before use.
# For binding experiments, frozen membranes were thawed, pelleted at 50,000 g for 20 minutes and washed as described above, except that 20 volumes of buffer A were used for resuspension, for a total of four times. The final pellet was resuspended in buffer B (5 mm Tris-HCl, pH 7.5) at 23° C. The binding assay mixture was 1.00 ml buffer B containing 200-300 μg membrane protein, 100 μm L-glutamate, 100 μm glycine, 2 nm [^3 H]MK-801 and tetraamine at the following concentrations: 0 ("100%+L-glu,+gly-Control") and 0.05, 0.1, 0.5, 1, 5, 10, 50, 100, 500 and 1,000 μm. Non-specific binding was determined using 100 μm MK-801.
# Binding assays were performed in triplicate at 23° C. for one hour and were terminated by filtration through Whatman GF/B glass fiber filters followed by three 4.0 ml rinses of ice-cold buffer B using a Brandel M-48 Cell Harvester.
# [2] = system: castor oil-induced diarrhea; test: Castor oil-induced diarrhea; format: in vivo, rat; conditions: rat
# Text: Castor Oil-Induced Diarrhea. Male Sprague-Dawley rats (350-400 g) were fasted overnight in hanging wire cages and allowed free access to water.
# [3] = mice, three weeks after a seven day schedule; cited from earlier work
# [4] = system: polyamine transport apparatus; test: Competition with radiolabeled spermidine for uptake into L1210 cells (Ki); format: cell-based, Murine; conditions: L1210 cells
# Method: The same cell line was utilized to evaluate the tetraamines's competition with radiolabeled spermidine for the polyamine uptake apparatus (Ki). The Ki values here are the concentrations of drugs required to inhibit the uptake of radioactive spermidine transport by 50% (Table 1).
# Uptake Determinations. The polyamine derivatives were studied for their ability to compete with [^3 H]SPD or [^14 C]SPD for uptake into L1210 leukemia cells in vitro. Cell suspensions were incubated in 1 ml of RPMI-1640 containing 1, 2, 4, 6, 8 and 10 μm radiolabeled SPD alone or with the additional presence of 10, 25 and 50 μm polyamine analogue for 20 minutes at 37° C. At the end of the incubation period, tubes were centrifuged at 900 g for 5 minutes at 0-4° C. The pellet was washed twice with 5 ml of cold RPMI-1640 containing 1 mm SPD, dissolved in 200 μl of 1N NaOH at 60° C. for 1 hour, and neutralized with 1N HCl. The material was transferred to a vial for scintillation counting.
# [5] = system: L1210 cells; test: Polyamine pool analysis in analogue-treated L1210 cells (HPLC); format: cell-based, Murine
# Method: Polyamine Pool Analysis. While in logarithmic growth, cells were treated with the polyamine derivatives. […] Each supernatant was frozen at -20° C. until analysis by HPLC.
# [6] = Chronic toxicity, one dose per day for five days; format: in vivo; conditions: mouse, in vivo
# Method: In the chronic toxicity regimen, mice were administered the polyamine analogue as one dose per day for five days. Appetite, weight and overall physical appearance were recorded at the time of each injection. After the treatment regimen had been completed, the animals were observed an additional 10 days. The chronic toxicity dosing regimen was set up so that at least one test group was presented with a high fraction of lethalities.
# [7] = Metabolism of (HO)2 DEHSPM v. DEHSPM in mouse liver and kidney (HPLC); format: in vivo
# Method: Metabolism of (HO)2 DEHSPM v. DEHSPM in Mouse Liver and Kidney. […] In ease case, animals were sacrificed for HPLC analysis one day after the final dose.
# HPLC Analysis of Polyamines. Various tissues including the liver and kidney were prepared for HPLC analysis of polyamine content. In order to facilitate their handling, the organs were submerged in liquid nitrogen. Once frozen and weighed, the tissues were homogenized (Tissuemizer, Tekmar, Cincinnati, Ohio) in 1.2N perchloric acid (containing 1,7-diaminoheptane internal standard) in a 1:20 (w/v) ratio. The tissue homogenates were then freeze-thawed three times and stored in a -70° C. freezer until HPLC analysis was performed.
# Each chromatographic assay included calibration standards which were treated in the same manner as the samples. […] The concentration of each polyamine was calculated from the peak area by calibration curves obtained by non-weighted least squares linear regression. Peak area and linear regression calculations were performed on a Macintosh Centris 650 with Rainin Dynamax HPLC Method Manager software (Rainin Instrument Co., Ridgefield, N.J.).
# [8] = Acute toxicity, single intraperitoneal injection; conditions: mouse, in vivo, ip
# [9] = system: L1210 cells; test: L1210 growth inhibition, IC50 determinations; format: cell-based, Murine; conditions: L1210 cells
# Method: IC50 Determinations. Cells were grown in 25 cm^2 tissue culture flasks in a total volume of 10 ml. Cultures were treated while in logarithmic growth (0.5-1.0×10^5 cells/ml) with the polyamine derivative diluted in sterile water and filtered through a 0.2 μm filter.
# After the indicated time periods, cells were removed from the incubator for counting. Cell number was determined by electronic particle counting (Model ZF coulter counter, Coulter Electronics, Hialeah, Fla.) and confirmed periodically with hemocytometer measurements.
# The percentage of control growth was determined as follows: [formula]
# [10] = 24 h after regimen, normalized for 30 g mouse
# [11] = liver and kidneys, 24 h after regimen, 30 g mouse
# [12] = mouse, one day after subchronic equimolar i.p. regimen
smiles,measurement,setting,value
"CCNCCCCNCCCCNCCCCNCC [DEHSPM, Diethylhomospermine]",concentration showing agonist activity on MK-801 binding,[1],0.5-1.0 μm
same,concentrations of maximal antagonism of MK-801 binding,[1],≥ 50 μm
same,concentrations showing marked antagonist activity on MK-801 binding,[1],above 5 μm
same,prevention of castor oil-induced diarrhea,"[2]; 5 mg/kg subcutaneous, six hour assay",effectively prevented the onset of diarrheal stooling
same,stool output / diarrhea during 6 hour assay (FIG. 8),[2]; subcutaneous injection 30 minutes before castor oil 5 ml/kg,virtually no stool output
same,drug administered remaining in liver and kidney as drug or metabolites,[3],35%
same,share of drug remaining in the animal that is in the form of HSPM,[3],90%
same,Ki,"[4]; estimated from Lineweaver-Burke plots, read-out: Ki, [3H]-spermidine transport",1.4 µM
same,Ki,"[4]; tetraamine analogues, radiolabeled spermidine uptake, read-out: Ki, actual (Table 1)",1.4 µM
same,SPM level relative to untreated controls,"[5]; L1210 cells, 10 μm analogue, 48 hours, control = 100%",60% and 61%
same,N-deethylation by L1210 cells,[5]; in vitro conditions,do not N-deethylate
same,greater chronic toxicity of DEHSPM v. DENSPM,[6],4-5 fold
same,LD50,[6]; read-out: chronic LD50,38 mg/kg
same,"% of total dose present as total drug + metabolite, Kidneys",[7]; [10],9.67%
same,"% of total dose present as total drug + metabolite, Liver",[7]; [10],24.15%
same,"% of total dose present as unmetabolized parent drug, Kidneys",[7]; [10],3.14 ± 1.37%
same,"% of total dose present as unmetabolized parent drug, Liver",[7]; [10],1.84 ± 0.53%
same,"Amount of total dose present as dideethylated metabolite HSPM/(HO)2 HSPM, Kidneys",[7]; [10],0.408 µmol
same,"Amount of total dose present as dideethylated metabolite HSPM/(HO)2 HSPM, Liver",[7]; [10],1.394 µmol
same,"Amount of total dose present as total drug + metabolite, Kidneys",[7]; [10],0.604 µmol
same,"Amount of total dose present as total drug + metabolite, Liver",[7]; [10],1.509 µmol
same,"Amount of total dose present as unmetabolized parent drug, Kidneys",[7]; [10],0.196 µmol
same,"Amount of total dose present as unmetabolized parent drug, Liver",[7]; [10],0.115 µmol
same,"% of total dose present as total drug + metabolite, Both Tissues",[7]; [11],33.8% and 33.82%
same,"% of total dose present as unmetabolized parent drug, Both Tissues",[7]; [11],5.0% and 4.98%
same,"Amount of total dose present as dideethylated metabolite HSPM/(HO)2 HSPM, Both Tissues",[7]; [11],1.80 µmol and 1.802 µmol
same,"Amount of total dose present as total drug + metabolite, Both Tissues",[7]; [11],2.11 µmol and 2.113 µmol
same,"Amount of total dose present as unmetabolized parent drug, Both Tissues",[7]; [11],0.313 µmol and 0.311 µmol
same,level of unchanged drug in kidney,[7]; [12],409±178 nmol/g wet weight
same,level of unchanged drug in liver,[7]; [12],43.9±12.6 nmol/g wet weight
same,LD50,[8],325 mg/kg
same,IC50,"[9]; 96 h, read-out: IC50 96 h",0.05 to 0.09 µM
same,IC50,"[9]; Mus musculus, L1210, 48 h, 48 h, read-out: IC50 48 h",0.2 µM
same,IC50,"[9]; Mus musculus, L1210, 96 h, 96 h, read-out: IC50 96 h",0.07 µM
